Results reported in ChEMBL document CHEMBL4765340, “Novel potent antiplatelet thrombotic agent derived from biguanide for ischemic stroke” (Eur J Med Chem, 2020).

tested on: not listed separately; test: Cmax in Sprague-Dawley rat at 200 mg/kg, po compound dissolved in DMSO measured after 2 hr by HPLC-MS/MS analysis; type: ADME, organism-based; set-up: route oral, time 2 hrs, dose 200 mg/kg; settings: in vivo

`CN(C)C(=N)NC(=N)N` [METFORMIN] gave a Cmax of 18000 ng/mL.

tested on: not listed separately; test: Inhibition of thrombin-induced platelet aggregation in mouse platelet isolated from C57BL/6J mouse treated at 200 mg/kg, ig twice a day for 7 days by lumi-aggregometer; type: functional; settings: po, 168 h, time 7 day

Compared with `CN(C)C(=N)NC(=N)NS(=O)(=O)CCC(F)(F)F`, `CN(C)C(=N)NC(=N)NS(=O)(=O)CC(F)(F)F` is higher in inhibition in vivo at 200 mg/kg: 24.4% for the first, 29.3% for the second.

Compared with `CN(C)C(=N)NC(=N)/N=C/c1cc(O)c(O)c(O)c1`, `CN(C)C(=N)NC(=N)/N=C/c1ccc(O)cc1` is higher in inhibition in vivo at 200 mg/kg: 7.1% for the first, 11.5% for the second.

First: CN(C)C(=N)NC(=N)/N=C/c1ccc(C#N)cc1
Second: CN(C)C(=N)NC(=N)/N=C/c1ccc(N(C)C)cc1
The inhibition in vivo at 200 mg/kg of the first is higher: 9.5% for the first, 6.2% for the second.

Going from `CN(C)C(=N)NC(=N)NC(=O)C1CCCCC1` to `CN(C)C(=N)NC(=N)NS(=O)(=O)C1CCCCC1`, the inhibition in vivo at 200 mg/kg falls from 24.1% to 19.5%.

First: Cc1ccc(C(=O)NC(=N)NC(=N)N(C)C)cc1
Second: CN(C)C(=N)NC(=N)NC(=O)c1ccccc1
The inhibition in vivo at 200 mg/kg of the first is higher: 18.3% for the first, 14.2% for the second.

Compared with `CN(C)C(=N)NC(=N)NS(=O)(=O)C(F)F`, `CC(C)S(=O)(=O)NC(=N)NC(=N)N(C)C` is lower in inhibition in vivo at 200 mg/kg: 35.5% for the first, 28.2% for the second.

Going from `Cc1ccc(S(=O)(=O)NC(=N)NC(=N)N(C)C)cc1` to `CN(C)C(=N)NC(=N)NS(C)(=O)=O`, the inhibition in vivo at 200 mg/kg rises from 16.5% to 47.5%.

Compared with `CN(C)C(=N)NC(=N)NCc1ccccc1`, `CC(=O)NC(=N)NC(=N)N(C)C` is higher in inhibition in vivo at 200 mg/kg: 12.1% for the first, 15.4% for the second.

Going from `CCS(=O)(=O)NC(=N)NC(=N)N(C)C` to `CN(C)C(=N)NC(=N)NS(=O)(=O)C(Cl)(Cl)Cl`, the inhibition in vivo at 200 mg/kg rises from 34.3% to 34.9%.

First: CN(C)C(=N)NC(=N)NC(=O)C(F)(F)F
Second: CN(C)C(=N)NC(=N)NC(=O)CCC(=O)O
The inhibition in vivo at 200 mg/kg of the first is lower: 16.5% for the first, 40.4% for the second.

Compared with `CC(=O)Oc1ccccc1C(=O)O` [ASPIRIN], `CN(C)C(=N)NC(=N)NC(=O)/C=C/C(=O)O` is lower in inhibition in vivo at 200 mg/kg: 38.8% for the first, 13.5% for the second.

First: CN(C)C(=N)NC(=N)N [METFORMIN]
Second: CN(C)C(=N)NC(=N)NS(=O)(=O)C(F)(F)C(F)(F)C(F)(F)C(F)(F)F
The inhibition in vivo at 200 mg/kg of the first is higher: 18.5% for the first, 9.2% for the second.

tested on: not listed separately; test: AUC (0 to infinity) in Sprague-Dawley rat at 200 mg/kg, po measured by HPLC-MS/MS analysis; type: ADME, organism-based; set-up: time infinity, route oral, dose 200 mg/kg; settings: in vivo

In the case of `CN(C)C(=N)NC(=N)N` [METFORMIN], the AUC(0-inf) is reported as 78700 ng·h/mL.

tested on: Mus musculus; test: Antithrombotic activity in collagen-epinephrine induced pulmonary thromboembolism mouse model assessed as protection rate at 200 mg/kg, ig twice a day for 7 days followed by administered collagen-epinephrine relative to control; type: functional; settings: time 7 day

Going from `CN(C)C(=N)NC(=N)NS(=O)(=O)CCC(F)(F)F` to `CN(C)C(=N)NC(=N)NS(=O)(=O)CC(F)(F)F`, the Activity rises from 20% to 30%.

Going from `CN(C)C(=N)NC(=N)/N=C/c1cc(O)c(O)c(O)c1` to `CN(C)C(=N)NC(=N)/N=C/c1ccc(O)cc1`, the Activity rises from 0% to 10%.

`CN(C)C(=N)NC(=N)/N=C/c1ccc(C#N)cc1` and `CN(C)C(=N)NC(=N)/N=C/c1ccc(N(C)C)cc1` are the same in Activity: 10% for the first, 10% for the second.

Going from `CN(C)C(=N)NC(=N)NC(=O)C1CCCCC1` to `CN(C)C(=N)NC(=N)NS(=O)(=O)C1CCCCC1`, the Activity rises from 20% to 30%.

`Cc1ccc(C(=O)NC(=N)NC(=N)N(C)C)cc1` and `CN(C)C(=N)NC(=N)NC(=O)c1ccccc1` are the same in Activity: 20% for the first, 20% for the second.

Compared with `CN(C)C(=N)NC(=N)NS(=O)(=O)C(F)F`, `CC(C)S(=O)(=O)NC(=N)NC(=N)N(C)C` is higher in Activity: 30% for the first, 40% for the second.

Compared with `Cc1ccc(S(=O)(=O)NC(=N)NC(=N)N(C)C)cc1`, `CN(C)C(=N)NC(=N)NS(C)(=O)=O` is higher in Activity: 30% for the first, 50% for the second.

First: CN(C)C(=N)NC(=N)NCc1ccccc1
Second: CC(=O)NC(=N)NC(=N)N(C)C
The Activity of the first is higher: 20% for the first, 10% for the second.

First: CCS(=O)(=O)NC(=N)NC(=N)N(C)C
Second: CN(C)C(=N)NC(=N)NS(=O)(=O)C(Cl)(Cl)Cl
The Activity of the first is lower: 20% for the first, 40% for the second.

First: CN(C)C(=N)NC(=N)NC(=O)C(F)(F)F
Second: CN(C)C(=N)NC(=N)NC(=O)CCC(=O)O
The Activity of the first is lower: 30% for the first, 40% for the second.

Compared with `CC(=O)Oc1ccccc1C(=O)O` [ASPIRIN], `CN(C)C(=N)NC(=N)NC(=O)/C=C/C(=O)O` is lower in Activity: 50% for the first, 20% for the second.

First: CN(C)C(=N)NC(=N)N [METFORMIN]
Second: CN(C)C(=N)NC(=N)NS(=O)(=O)C(F)(F)C(F)(F)C(F)(F)C(F)(F)F
The Activity of the first is higher: 30% for the first, 20% for the second.

tested on: not listed separately; test: Half life in Sprague-Dawley rat at 200 mg/kg, po measured by HPLC-MS/MS analysis; type: ADME, organism-based; settings: in vivo

With `CN(C)C(=N)NC(=N)N` [METFORMIN] the half-life was 3.24 h.

tested on: not listed separately; test: Apparent clearance during terminal phase in Sprague-Dawley rat at 200 mg/kg, po measured by HPLC-MS/MS analysis; type: ADME, organism-based; settings: in vivo

`CN(C)C(=N)NC(=N)N` [METFORMIN] gave a CLz/F of 42.4 mL/min/kg.
